Values joined by “and” are separate entries in the source; they are usually repeats but may differ in a detail not shown here. Equal values may be shown once.
Tests used:
[1] = biological target: panel of 320 non-olfactory GPCRs (Homo sapiens, UniProt O95838); assay type: cell-based
[2] = biological target: panel of 320 non-olfactory GPCRs (Homo sapiens, UniProt P08172); assay type: cell-based
[3] = biological target: panel of 320 non-olfactory GPCRs (Homo sapiens, UniProt P21730); assay type: cell-based
Sequence of panel of 320 non-olfactory GPCRs (Homo sapiens, UniProt P21730) (P21730 whole entry): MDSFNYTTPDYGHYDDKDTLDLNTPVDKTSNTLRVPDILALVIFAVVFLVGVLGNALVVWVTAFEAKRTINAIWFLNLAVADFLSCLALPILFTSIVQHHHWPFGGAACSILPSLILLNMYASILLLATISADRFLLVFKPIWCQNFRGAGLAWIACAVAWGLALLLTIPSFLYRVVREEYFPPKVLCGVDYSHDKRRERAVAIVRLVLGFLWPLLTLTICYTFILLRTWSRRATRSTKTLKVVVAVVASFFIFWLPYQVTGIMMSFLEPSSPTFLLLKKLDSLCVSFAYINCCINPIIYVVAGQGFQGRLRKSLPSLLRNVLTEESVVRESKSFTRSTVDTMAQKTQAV

[4] = biological target: panel of 320 non-olfactory GPCRs (Homo sapiens, UniProt P25089); assay type: cell-based
[5] = biological target: panel of 320 non-olfactory GPCRs (Homo sapiens, UniProt P25103); assay type: cell-based
Sequence of panel of 320 non-olfactory GPCRs (Homo sapiens, UniProt P25103) (P25103 whole entry): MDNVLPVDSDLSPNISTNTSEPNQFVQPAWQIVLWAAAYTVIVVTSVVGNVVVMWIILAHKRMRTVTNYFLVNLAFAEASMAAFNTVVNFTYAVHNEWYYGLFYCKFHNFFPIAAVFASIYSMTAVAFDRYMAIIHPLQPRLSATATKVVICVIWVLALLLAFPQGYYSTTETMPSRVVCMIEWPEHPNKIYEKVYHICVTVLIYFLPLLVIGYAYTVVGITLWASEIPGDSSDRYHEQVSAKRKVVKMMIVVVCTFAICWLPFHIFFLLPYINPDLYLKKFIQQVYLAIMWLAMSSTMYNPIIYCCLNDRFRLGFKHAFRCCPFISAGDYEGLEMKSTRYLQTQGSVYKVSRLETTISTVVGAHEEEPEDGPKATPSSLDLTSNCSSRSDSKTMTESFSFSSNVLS

[6] = biological target: panel of 320 non-olfactory GPCRs (Homo sapiens, UniProt P25105); assay type: cell-based
[7] = biological target: panel of 320 non-olfactory GPCRs (Homo sapiens, UniProt P25116); assay type: cell-based
[8] = biological target: panel of 320 non-olfactory GPCRs (Homo sapiens, UniProt P28335, I156V/I160V/N158G); assay type: cell-based
[9] = biological target: panel of 320 non-olfactory GPCRs (Homo sapiens, UniProt P30989); assay type: cell-based
Sequence of panel of 320 non-olfactory GPCRs (Homo sapiens, UniProt P30989) (P30989 whole entry): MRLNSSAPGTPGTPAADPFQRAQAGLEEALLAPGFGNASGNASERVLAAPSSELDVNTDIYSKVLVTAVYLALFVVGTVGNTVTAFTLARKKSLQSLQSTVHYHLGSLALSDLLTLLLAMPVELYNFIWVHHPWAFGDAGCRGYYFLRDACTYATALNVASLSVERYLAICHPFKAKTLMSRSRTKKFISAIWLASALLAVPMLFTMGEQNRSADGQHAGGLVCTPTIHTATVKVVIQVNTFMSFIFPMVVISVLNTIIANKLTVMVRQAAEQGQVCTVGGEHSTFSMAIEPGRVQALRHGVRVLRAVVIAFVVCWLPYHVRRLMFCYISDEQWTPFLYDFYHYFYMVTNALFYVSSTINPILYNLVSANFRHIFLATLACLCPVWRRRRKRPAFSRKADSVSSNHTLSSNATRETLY

[10] = biological target: panel of 320 non-olfactory GPCRs (Homo sapiens, UniProt P32249); assay type: cell-based
[11] = biological target: panel of 320 non-olfactory GPCRs (Homo sapiens, UniProt P34972); assay type: cell-based
[12] = biological target: panel of 320 non-olfactory GPCRs (Homo sapiens, UniProt P35348); assay type: cell-based
[13] = biological target: panel of 320 non-olfactory GPCRs (Homo sapiens, UniProt P41595); assay type: cell-based
[14] = biological target: panel of 320 non-olfactory GPCRs (Homo sapiens, UniProt P46095); assay type: cell-based
[15] = biological target: panel of 320 non-olfactory GPCRs (Homo sapiens, UniProt P46663); assay type: cell-based
[16] = biological target: panel of 320 non-olfactory GPCRs (Homo sapiens, UniProt P47775); assay type: cell-based
[17] = biological target: panel of 320 non-olfactory GPCRs (Homo sapiens, UniProt P47898); assay type: cell-based
[18] = biological target: panel of 320 non-olfactory GPCRs (Homo sapiens, UniProt P47901); assay type: cell-based
Sequence of panel of 320 non-olfactory GPCRs (Homo sapiens, UniProt P47901) (P47901 whole entry): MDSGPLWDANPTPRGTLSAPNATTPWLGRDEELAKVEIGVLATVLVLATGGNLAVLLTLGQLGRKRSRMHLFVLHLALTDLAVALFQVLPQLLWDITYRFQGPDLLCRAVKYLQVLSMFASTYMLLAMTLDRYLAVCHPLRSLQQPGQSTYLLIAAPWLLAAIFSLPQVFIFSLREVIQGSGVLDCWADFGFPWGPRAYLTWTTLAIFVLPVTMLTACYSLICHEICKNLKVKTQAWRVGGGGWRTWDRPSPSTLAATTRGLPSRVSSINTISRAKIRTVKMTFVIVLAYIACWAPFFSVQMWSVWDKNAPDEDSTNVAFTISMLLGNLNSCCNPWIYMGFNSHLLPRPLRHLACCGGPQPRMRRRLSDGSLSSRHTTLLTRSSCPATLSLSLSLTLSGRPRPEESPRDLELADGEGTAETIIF

[19] = biological target: panel of 320 non-olfactory GPCRs (Homo sapiens, UniProt P51677); assay type: cell-based
Sequence of panel of 320 non-olfactory GPCRs (Homo sapiens, UniProt P51677) (P51677 whole entry): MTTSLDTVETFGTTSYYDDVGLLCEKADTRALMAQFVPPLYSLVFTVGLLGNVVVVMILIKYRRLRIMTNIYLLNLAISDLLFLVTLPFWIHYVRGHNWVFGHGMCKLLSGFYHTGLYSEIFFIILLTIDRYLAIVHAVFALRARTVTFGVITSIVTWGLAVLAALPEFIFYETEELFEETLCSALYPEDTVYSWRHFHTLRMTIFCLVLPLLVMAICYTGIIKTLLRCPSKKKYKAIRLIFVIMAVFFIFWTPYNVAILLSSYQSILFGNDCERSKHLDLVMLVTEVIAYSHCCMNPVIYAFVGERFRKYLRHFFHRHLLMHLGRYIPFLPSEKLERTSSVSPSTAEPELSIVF

[20] = biological target: panel of 320 non-olfactory GPCRs (Homo sapiens, UniProt Q15077); assay type: cell-based
Sequence of panel of 320 non-olfactory GPCRs (Homo sapiens, UniProt Q15077) (Q15077 whole entry): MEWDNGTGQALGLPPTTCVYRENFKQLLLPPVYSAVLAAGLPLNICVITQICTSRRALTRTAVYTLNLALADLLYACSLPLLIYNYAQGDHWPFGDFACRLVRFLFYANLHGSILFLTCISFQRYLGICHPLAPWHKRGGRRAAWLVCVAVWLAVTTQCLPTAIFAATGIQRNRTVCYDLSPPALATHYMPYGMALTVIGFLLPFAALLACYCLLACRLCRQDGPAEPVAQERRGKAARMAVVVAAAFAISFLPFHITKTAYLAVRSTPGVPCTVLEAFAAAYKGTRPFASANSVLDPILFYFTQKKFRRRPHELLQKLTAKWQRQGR

[21] = biological target: panel of 320 non-olfactory GPCRs (Homo sapiens, UniProt Q15743); assay type: cell-based
[22] = biological target: panel of 320 non-olfactory GPCRs (Homo sapiens, UniProt Q16538); assay type: cell-based
Sequence of panel of 320 non-olfactory GPCRs (Homo sapiens, UniProt Q16538) (Q16538 whole entry): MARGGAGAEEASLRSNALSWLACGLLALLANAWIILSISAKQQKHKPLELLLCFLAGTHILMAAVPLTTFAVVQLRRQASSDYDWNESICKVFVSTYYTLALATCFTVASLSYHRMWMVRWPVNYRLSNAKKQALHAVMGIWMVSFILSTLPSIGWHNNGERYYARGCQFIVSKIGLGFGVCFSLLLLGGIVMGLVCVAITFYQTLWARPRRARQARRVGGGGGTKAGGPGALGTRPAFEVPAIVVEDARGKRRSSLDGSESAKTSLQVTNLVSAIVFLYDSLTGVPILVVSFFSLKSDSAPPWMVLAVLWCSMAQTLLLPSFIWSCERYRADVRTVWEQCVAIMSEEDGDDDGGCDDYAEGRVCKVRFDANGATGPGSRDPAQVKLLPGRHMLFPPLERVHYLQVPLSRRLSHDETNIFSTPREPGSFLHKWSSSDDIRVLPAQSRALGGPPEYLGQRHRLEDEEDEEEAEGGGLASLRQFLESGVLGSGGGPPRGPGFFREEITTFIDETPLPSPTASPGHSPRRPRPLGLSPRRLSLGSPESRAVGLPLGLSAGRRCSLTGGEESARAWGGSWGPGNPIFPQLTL

[23] = biological target: panel of 320 non-olfactory GPCRs (Homo sapiens, UniProt Q16602); assay type: cell-based
[24] = biological target: panel of 320 non-olfactory GPCRs (Homo sapiens, UniProt Q6NV75); assay type: cell-based
[25] = biological target: panel of 320 non-olfactory GPCRs (Homo sapiens, UniProt Q6QNK2); assay type: cell-based
[26] = biological target: panel of 320 non-olfactory GPCRs (Homo sapiens, UniProt Q86SM5); assay type: cell-based
[27] = biological target: panel of 320 non-olfactory GPCRs (Homo sapiens, UniProt Q8IZF2); assay type: cell-based
[28] = biological target: panel of 320 non-olfactory GPCRs (Homo sapiens, UniProt Q99677); assay type: cell-based
[29] = biological target: panel of 320 non-olfactory GPCRs (Homo sapiens, UniProt Q9BXC1); assay type: cell-based
[30] = biological target: panel of 320 non-olfactory GPCRs (Homo sapiens, UniProt Q9HBW9); assay type: cell-based
[31] = biological target: panel of 320 non-olfactory GPCRs (Homo sapiens, UniProt Q9NQS5); assay type: cell-based
Sequence of panel of 320 non-olfactory GPCRs (Homo sapiens, UniProt Q9NQS5) (Q9NQS5 whole entry): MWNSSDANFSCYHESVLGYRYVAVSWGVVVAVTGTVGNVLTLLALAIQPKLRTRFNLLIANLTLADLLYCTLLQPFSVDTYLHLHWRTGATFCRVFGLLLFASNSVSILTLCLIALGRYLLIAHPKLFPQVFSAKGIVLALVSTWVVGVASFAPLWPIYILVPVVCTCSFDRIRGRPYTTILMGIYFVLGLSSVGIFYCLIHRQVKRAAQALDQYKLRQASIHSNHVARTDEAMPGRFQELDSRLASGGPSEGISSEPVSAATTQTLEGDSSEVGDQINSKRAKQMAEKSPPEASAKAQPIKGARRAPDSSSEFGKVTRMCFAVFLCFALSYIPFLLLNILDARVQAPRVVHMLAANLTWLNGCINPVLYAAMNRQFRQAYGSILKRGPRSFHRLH

[32] = biological target: panel of 320 non-olfactory GPCRs (Homo sapiens, UniProt Q9NS66); assay type: cell-based
[33] = biological target: panel of 320 non-olfactory GPCRs (Homo sapiens, UniProt Q9Y5X5); assay type: cell-based
[34] = biological target: panel of 320 non-olfactory GPCRs (Homo sapiens, UniProt Q9Y5Y3); assay type: cell-based
[35] = biological target: panel of 320 non-olfactory GPCRs (Homo sapiens, UniProt Q9Y5Y4); assay type: cell-based
[36] = biological target: panel of 320 non-olfactory GPCRs (Homo sapiens, UniProt Q9Y653); assay type: cell-based
Sequence of panel of 320 non-olfactory GPCRs (Homo sapiens, UniProt Q9Y653) (Q9Y653 26-693): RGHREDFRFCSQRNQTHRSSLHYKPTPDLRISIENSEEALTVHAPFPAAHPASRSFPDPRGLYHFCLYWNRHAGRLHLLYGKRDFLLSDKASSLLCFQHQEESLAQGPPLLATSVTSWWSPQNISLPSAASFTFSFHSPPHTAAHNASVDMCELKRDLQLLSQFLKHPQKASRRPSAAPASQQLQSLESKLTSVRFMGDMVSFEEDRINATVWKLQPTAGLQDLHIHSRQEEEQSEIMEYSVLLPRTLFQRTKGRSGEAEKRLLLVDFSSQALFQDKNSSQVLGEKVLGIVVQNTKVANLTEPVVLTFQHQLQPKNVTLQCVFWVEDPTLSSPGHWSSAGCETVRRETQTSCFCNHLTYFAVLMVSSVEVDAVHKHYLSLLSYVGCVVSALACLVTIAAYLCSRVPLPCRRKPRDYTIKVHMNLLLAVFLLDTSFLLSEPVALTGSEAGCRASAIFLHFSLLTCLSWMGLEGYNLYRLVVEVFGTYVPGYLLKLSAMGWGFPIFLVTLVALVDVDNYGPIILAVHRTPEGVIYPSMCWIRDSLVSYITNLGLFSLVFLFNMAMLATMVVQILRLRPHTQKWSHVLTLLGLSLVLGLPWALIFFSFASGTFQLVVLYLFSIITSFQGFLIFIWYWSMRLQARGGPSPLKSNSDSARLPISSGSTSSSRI

[37] = tested on: panel of 320 non-olfactory GPCRs; assay type: cell-based, human
Wherever Fold of Basal RLU is given: test concentration or dose not given here.

Sequence of panel of 320 non-olfactory GPCRs (Homo sapiens, UniProt O95838) (O95838 whole entry): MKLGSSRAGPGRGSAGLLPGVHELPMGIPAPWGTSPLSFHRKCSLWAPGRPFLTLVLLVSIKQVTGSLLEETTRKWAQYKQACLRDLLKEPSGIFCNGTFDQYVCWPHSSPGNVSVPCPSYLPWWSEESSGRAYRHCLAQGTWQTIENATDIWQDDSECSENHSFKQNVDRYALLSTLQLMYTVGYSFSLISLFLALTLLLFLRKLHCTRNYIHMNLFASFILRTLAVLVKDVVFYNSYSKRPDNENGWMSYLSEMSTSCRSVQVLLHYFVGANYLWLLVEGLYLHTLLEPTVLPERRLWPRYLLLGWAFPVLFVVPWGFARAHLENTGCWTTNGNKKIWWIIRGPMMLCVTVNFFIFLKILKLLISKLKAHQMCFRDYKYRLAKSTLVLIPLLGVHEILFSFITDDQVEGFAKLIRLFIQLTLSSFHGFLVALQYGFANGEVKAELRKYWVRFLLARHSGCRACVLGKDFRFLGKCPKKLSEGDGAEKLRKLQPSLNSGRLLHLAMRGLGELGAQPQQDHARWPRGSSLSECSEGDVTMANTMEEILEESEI
Sequence of panel of 320 non-olfactory GPCRs (Homo sapiens, UniProt P08172) (P08172 whole entry): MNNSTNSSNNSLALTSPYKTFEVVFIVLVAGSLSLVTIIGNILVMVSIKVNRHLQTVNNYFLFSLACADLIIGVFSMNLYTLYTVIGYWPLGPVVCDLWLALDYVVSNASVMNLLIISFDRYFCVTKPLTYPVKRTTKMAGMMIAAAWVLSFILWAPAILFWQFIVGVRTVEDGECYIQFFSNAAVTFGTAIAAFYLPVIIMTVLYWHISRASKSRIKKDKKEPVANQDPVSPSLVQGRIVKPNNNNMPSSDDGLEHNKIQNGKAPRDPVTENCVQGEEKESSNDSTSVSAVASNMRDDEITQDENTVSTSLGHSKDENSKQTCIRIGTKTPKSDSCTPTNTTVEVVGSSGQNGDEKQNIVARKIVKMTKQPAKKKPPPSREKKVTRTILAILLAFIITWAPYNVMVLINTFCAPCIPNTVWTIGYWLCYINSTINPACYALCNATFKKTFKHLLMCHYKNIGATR

| Compound | Fold of Basal RLU [1] | Fold of Basal RLU [2] | Fold of Basal RLU [3] | Fold of Basal RLU [4] | Fold of Basal RLU [5] | Fold of Basal RLU [6] | Fold of Basal RLU [7] | Fold of Basal RLU [8] | Fold of Basal RLU [9] | Fold of Basal RLU [10] | Fold of Basal RLU [11] | Fold of Basal RLU [12] | Fold of Basal RLU [13] | Fold of Basal RLU [14] | Fold of Basal RLU [15] | Fold of Basal RLU [16] | Fold of Basal RLU [17] | Fold of Basal RLU [18] | Fold of Basal RLU [19] | Fold of Basal RLU [20] | other results |
| --- | --- | --- | --- | --- | --- | --- | --- | --- | --- | --- | --- | --- | --- | --- | --- | --- | --- | --- | --- | --- | --- |
| COC(=O)[C@@](C)(NC(=O)c1cc(C)n(-c2cccc(C(F)(F)F)c2)n1)c1cccs1 [‘1350] | 1.1 fold and 1.5 fold and 1 fold and 0.8 fold | 0.9 fold and 0.6 fold and 0.8 fold | 1.1 fold and 0.9 fold and 1.2 fold and 1 fold | 1 fold and 1.1 fold | 1.1 and 1.2 and 1.7 | 1.3 fold and 0.9 fold and 1.7 fold | 1 fold and 1.1 fold and 1.3 fold | 0.9 fold and 1.1 fold and 0.7 fold and 1 fold | 1.5 fold and 1 fold and 1.1 fold | 0.8 and 0.9 and 1 | 8.2 and 8.7 and 8.6 | 1.1 and 0.9 and 1.3 | 0.8 fold and 0.7 fold and 1 fold | 1.1 fold and 0.8 fold and 1 fold | 1.6 and 1.3 and 1.1 | 1.5 fold and 1.3 fold and 0.8 fold | 1.5 fold and 2.2 fold | 1.5 and 0.8 and 0.9 and 1.1 | 0.9 fold and 1 fold and 1.2 fold | 1.4 fold and 1.2 fold and 1.1 fold | Fold of Basal RLU [21]: 0.9 fold and 1 fold; Fold of Basal RLU [22]: 0.8 and 1 and 0.6; Fold of Basal RLU [23]: 0.4 and 0.7 and 0.6; Fold of Basal RLU [24]: 0.8 fold and 0.7 fold and 1 fold and 0.9 fold; Fold of Basal RLU [25]: 0.7 fold and 0.9 fold and 1 fold and 1.1 fold; Fold of Basal RLU [26]: 0.7 fold and 0.8 fold; Fold of Basal RLU [27]: 1.1 fold and 1.3 fold; Fold of Basal RLU [28]: 1.3 and 1.1 and 1 and 0.9; Fold of Basal RLU [29]: 0.9 and 1.3 and 1; Fold of Basal RLU [30]: 1.3 fold and 1.6 fold and 2.3 fold and 1.8 fold; Fold of Basal RLU [31]: 1 fold and 1.1 fold and 1.2 fold and 1.4 fold; Fold of Basal RLU [32]: 1.6 and 1.3 and 1.7; Fold of Basal RLU [33]: 0.3; Fold of Basal RLU [34]: 0.8 and 1.2 and 1.3 and 1; Fold of Basal RLU [35]: 1.1 fold and 1.4 fold and 1.5 fold; Fold of Basal RLU [36]: 1.4 fold and 1.2 fold and 1.5 fold; agonist activity at GPR55, GPR18, GPR119 [37]: no agonist activity; off-target functional activity [37]: little activity was seen |
| Cc1cc(C(=O)NC(C)(c2ccco2)c2ccco2)nn1-c1cccc(C(F)(F)F)c1 [‘4936] | 1 fold and 0.8 fold and 0.9 fold | 0.8 fold and 0.9 fold and 0.7 fold and 0.6 fold | 0.8 fold and 0.7 fold | 1.2 fold and 1.3 fold and 1.8 fold | 1.3 and 1.8 and 1.7 and 2 | 1.1 fold and 1.5 fold and 1.8 fold | 1.4 fold and 1.3 fold and 1.1 fold | 0.8 fold and 1 fold and 1.3 fold | 1.6 fold and 1.2 fold and 0.9 fold and 1 fold | 0.9 and 1 | 12.4 and 11.8 and 12 and 10.8 | 0.6 and 0.7 and 1.1 | 1.1 fold and 1.6 fold and 2 fold | 1.3 fold and 1 fold and 1.2 fold and 1.1 fold | 1.3 and 1.1 and 0.9 and 1.4 | 1.4 fold and 2.1 fold and 1.5 fold and 1.8 fold | 2.1 fold and 2.3 fold | 0.6 and 0.4 and 0.5 | 1 fold and 0.9 fold and 1.4 fold | 1.2 fold and 1.3 fold | Fold of Basal RLU [21]: 0.6 fold and 0.9 fold and 1 fold; Fold of Basal RLU [22]: 0.9 and 1.2 and 1.1 and 1.7; Fold of Basal RLU [23]: 1 and 0.6 and 0.5; Fold of Basal RLU [24]: 1.7 fold and 1.2 fold and 1.4 fold and 2.1 fold; Fold of Basal RLU [25]: 0.9 fold; Fold of Basal RLU [26]: 1.1 fold and 1 fold; Fold of Basal RLU [27]: 2.1 fold and 2.4 fold and 1.6 fold and 2.5 fold; Fold of Basal RLU [28]: 1.5 and 1.4 and 1.3 and 1; Fold of Basal RLU [29]: 1 and 1.1 and 1.3; Fold of Basal RLU [30]: 1.6 fold and 1.5 fold and 1.1 fold; Fold of Basal RLU [31]: 1 fold and 0.9 fold and 1.6 fold; Fold of Basal RLU [32]: 1.1 and 1 and 1.7 and 1.3; Fold of Basal RLU [33]: 0.4 and 0.6 and 0.5 and 0.3; Fold of Basal RLU [34]: 1.6 and 1.2 and 1.5; Fold of Basal RLU [35]: 2.3 fold and 1.8 fold and 1.6 fold and 1.5 fold; Fold of Basal RLU [36]: 2.1 fold and 1.6 fold and 1.2 fold and 1.1 fold; agonist activity at GPR55, GPR18, GPR119 [37]: no agonist activity; off-target functional activity [37]: except for ‘4936 against ADORA-1 |
